Source: patent US12194011B2, “Compositions comprising theanine, magnolia, and phellodendron” (Nutramax Laboratories, Inc., priority 2015, dated 2025)

Key:
serotonin (5-HT) = test: Basal serotonin (5-HT) output in hippocampal microdialysate after 6 daily oral doses; type: in vivo; details: male C57BI mice, basal level before 7th dose, hippocampal dialysate, student's t-test p<0.05
Description: (§1) Neurotransmitter release patterns in the brain were measured by a procedure which involved inserting a probe into the […] region (microdialysis probe) of a laboratory animal and flushing the probe via dialysis with an artificial cerebrospinal fluid (CSF). This is an accepted and common method used to obtain and measure in vivo brain levels of neurotransmitters and other small […].
(§2) The fluid being collected represents the extracellular or interstitial fluid found in the hippocampal region of the brain. This area is usually the preferred and typical area for microdialysis analysis because any changes measured in this area of the brain are believed to correspond with approximately 80% of whole brain tissue. […]
(§3) For the evaluation, male C57BI mice were divided into groups (6 per group) and administered a variety of compounds or a placebo orally for seven days. […] Each aliquot was then analyzed to determine the amount of GABA, glutamate, and serotonin (5-HT) in each sample. […]
(§4) First, basal output levels of each neurotransmitter were measured to determine any long-term, chronic effects of each compound on the neurotransmitters. […] These levels were determined by averaging the levels of each neurotransmitter in the three, 30-minute aliquots prior to the administration of the 7th daily dose (Sample −90 min to −60, Sample −60 minutes to −30, and Sample −30 minutes to time 0). […]

GABA = test: Acute GABA output in hippocampal microdialysate after the 7th daily dose; type: in vivo, C57BI mice; details: up to 210 minutes after 7th daily dose, % of basal output, ANOVA p<0.05
Description: as §1, §2, §3, §4

Wistar rats [1] = test: Open-field activity as a measure of sedation; type: in vivo; details: PO daily for 14 days, vehicle 9062 ± 597
Description: (§5) Wistar rats (16 per group) were dosed either with individual components (L-theanine, magnolia/phellodendron, and milk whey protein) or several combinations of the three, including the three-way combination (theanine+magnolia/phellodendron+milk whey protein). Magnolia/phellodendron combination was provided as a commercially available preparation (RELORA; InterHealth Nutraceuticals, Inc., Benicia, CA). Administered milk whey protein was standardized to 80% alpha-lactalbumin. The rats were dosed daily for 14 days, and then a series of behavioral assays were performed to detect any anxiolytic effects on the rats or sedative effects. The treatment groups were as follows: • 1: L-theanine+magnolia/phellodendron • 2: L-theanine+Milk Whey Protein • 3: magnolia/phellodendron+Milk Whey Protein • 4: L-theanine+magnolia/phellodendron+Milk Whey Protein • 5: L-theanine • 6: magnolia/phellodendron • 7: Milk Whey Protein
Locomotor activity in an open field test is a good measure of the sedative properties of a compound. As one example, a noted side-effect of many anxiolytic compounds such as benzodiazepines is marked sedation in conjunction with administration. […]
This test is performed by placing a rat in an open, brightly lit enclosure. The rats are videotaped, and the total distance the rat travels during the testing period is recorded as an indicator of locomotor activity. […]

Wistar rats [2] = test: Elevated plus-maze (EPM) test; type: in vivo; details: PO daily for 14 days, 16 per group, vehicle 10 ± 2
Description: as §5
The elevated plus-maze (EPM) capitalizes on the natural aversion (trait anxiety) of rodents on brightly lit, open, and elevated areas. The EPM has very strong predictive ability and is often used to profile the potential anxiolytic activity of compounds. During this test, the rats are videotaped after being placed in the elevated maze. The videos are analyzed to determine the % of time the rats stay in the open, elevated portions of the maze. […]

glutamate = test: Acute glutamate output in hippocampal microdialysate after the 7th daily dose; type: in vivo, C57BI mice; details: after 7th daily dose, % of basal output
Description: as §1, §2, §3, §4

SMILES: CCNC(=O)CC[C@H](N)C(=O)O [Compound A, L-theanine]
- effect on basal output of serotonin (5-HT) vs placebo (serotonin (5-HT)): none of L-theanine, Relora, nor milk whey protein had any significant effect
- acute treatment effect on GABA vs placebo (ANOVA) (GABA): no statistically significant treatment effects
- Mean Distance (cm) ± SEM (Wistar rats [1]): 9971 ± 652 cm
- Mean % Time in open arms ± SEM (Wistar rats [2]): 13 ± 2%
- immediate treatment effect on glutamate levels (glutamate): neither the individual components (A, B, C) nor the combination (A+B+C) had an immediate treatment effect
